Source: US20250332173A1, “COMPOUNDS AND METHODS FOR MODULATING NUCLEIC ACID SPLICING” (REMIX THERAPEUTICS INC., priority 2021, published 2025)

Experiments:
Format in all cases: cell-based, human
Target C [1] = test: RT-qPCR splicing assay panel, Target C canonical junction (CJ) mRNA; conditions: Homo sapiens
Procedure, shortened: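 Canonical-junction transcript levels in compound-treated A673 or K562 cells (24 h, up to 10 uM final) were determined from lysates by RT-qPCR with housekeeping-gene normalization.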

MYB = test: HiBiT protein abundance assay, MYB HiBiT K562 cell line; conditions: HiBiT K562 cell line, 24 hours, top dose 10 μM; read-out: Effect on protein abundance, MYB (IC50 category)
Procedure, shortened: (§1)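 Endogenous targets in K562 knock-in lines carried a HiBiT tag and were treated for 24 h at 37 °C with 10-point 3-fold dilutions (top 10 μM final, DMSO ≤0.25%). Abundance was read as lytic Nano-Glo HiBiT luminescence. IC50 came from a four-parameter logistic fit of normalized response.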

HTT = test: HiBiT protein abundance assay, HTT HiBiT K562 cell line; conditions: HiBiT K562 cell line, 24 hours, top dose 10 μM; read-out: Effect on protein abundance, HTT (IC50 category)
Procedure, shortened: as §1

Target C [2] = test: HiBiT protein abundance assay, Target C (Promega Nano-Glo HiBiT Lytic Detection System, knock-in K562 cell line); conditions: Homo sapiens, K562, 24 h, HiBiT K562 cell line, 24 hours, top dose 10 μM; read-out: Effect on protein abundance, Target C (IC50 category)
Procedure, shortened: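 HiBiT knock-in K562 cells (10,000/well) were treated for 24 h at 37 °C with a 10-point 3-fold dilution series, top final concentration 10 μM, DMSO ≤0.25%. Lytic HiBiT luminescence was read, normalized to unmodified K562 and DMSO-treated controls, and IC50 was interpolated from a four-parameter logistic fit.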

[3] = canonical junction qPCR panel, Table 5, read-out: Target C (decrease in CJ mRNA levels, IC50)
[4] = Table 5 panel, canonical junction qPCR, compound concentration having 50% response in CJ decrease, read-out: Target C IC50 (decrease in CJ mRNA levels)

Structure (SMILES) | IC50 (Target C [1]; [3]) [nM] | IC50 (MYB) [nM] | IC50 (HTT) [nM] | IC50 (Target C [2]) [nM] | IC50 (Target C [1]; [4]) [nM]
Cc1cn2cc(-c3ccc4c(=O)n(C5CCNCC5)ccc4n3)cc(C#N)c2n1 [Compound 1297] | 100 to 1000 | 100 to 1000 | 100 to 1000 | 100 to 1000 | –
Cc1cn2nc(-c3ccc4c(=O)n(C5CCNCC5)ncc4c3)cc(C)c2n1 [Compound 186] | – | 100 to 1000 | 100 to 1000 | 100 to 1000 | 100 to 1000
Cc1c(O)c(-c2ncc3c(=O)n(C4CNC4)ccc3n2)cc2cn(C)nc12 [Compound 1305, 6-(azetidin-3-yl)-2-(6-hydroxy-2,7-dimethyl-indazol-5-yl)pyrido[4,3-d]pyrimidin-5-one] | > 10000 | 100 to 1000 | > 10000 | > 10000 | –
Cc1cn2nc(-c3ccc4c(c3F)CCN(C3CCNCC3)C4=O)cc(C)c2n1 [Compound 188] | – | 100 to 1000 | 1000 to 10000 | 1000 to 10000 | 1000 to 10000
Cc1c(O)c(-c2ncc3c(=O)n([C@@H]4C[C@H]5C[C@@H]4CN5)ccc3n2)cc2cn(C)nc12 [Compound 1445, 6-[(1R,4R,5R)-2-azabicyclo[2.2.1]heptan-5-yl]-2(6-hydroxy-2,7-dimethyl-indazol-5-yl)pyrido[4,3-d]pyrimidin-5-one] | > 10000 | 1000 to 10000 | > 10000 | > 10000 | –
Cc1c(O)c(-c2ncc3c(=O)n(C4CCN(C)CC4)ccc3n2)cc2cn(C)nc12 [Compound 1304] | 1000 to 10000 | 100 to 1000 | 100 to 1000 | 1000 to 10000 | –
Cn1cc2cc(-c3ccc4c(=O)n(C5CCNCC5)ccc4n3)cc(F)c2n1 [Compound 1231] | 100 to 1000 | 100 to 1000 | 100 to 1000 | 100 to 1000 | –
Cc1cn2cc(-c3ncc4c(=O)n(C5CCNCC5)ccc4n3)cc(C#N)c2n1 [Compound 1301] | 1000 to 10000 | 100 to 1000 | 100 to 1000 | 100 to 1000 | –
Cc1c(O)c(-c2ncc3c(=O)n([C@H]4C[C@H](N)C4)ccc3n2)cc2cn(C)nc12 [Compound 1432, 6-((1r,3r)-3-aminocyclobutyl)-2-(6-hydroxy-2,7-dimethyl-2H-indazol-5-yl)pyrido[4,3-d]pyrimidin-5(6H)-one] | 1000 to 10000 | 100 to 1000 | 1000 to 10000 | 1000 to 10000 | –
Cc1c(O)c(-c2ccc3c(=O)n([C@@H]4CCNC4)ccc3n2)cc2cn(C)nc12 [Compound 1450, 2-(6-hydroxy-2,7-dimethyl-indazol-5-yl)-6-[(3R)-pyrrolidin-3-yl]-1,6-naphthyridin-5-one] | > 10000 | 100 to 1000 | 1000 to 10000 | 1000 to 10000 | –

The next lines start with the values.

IC50 (Target C [1]; [3]) [nM] | IC50 (MYB) [nM] | IC50 (HTT) [nM] | IC50 (Target C [2]) [nM] | IC50 (Target C [1]; [4]) [nM] | Structure (SMILES)
1000 to 10000 | < 100 | 100 to 1000 | 100 to 1000 | – | Cc1c(O)c(-c2ncc3c(=O)n([C@H]4CCNC(C)(C)C4)ccc3n2)cc2cn(C)nc12 [Compound 1436]
100 to 1000 | 100 to 1000 | 100 to 1000 | 100 to 1000 | – | Cc1c(O)c(-c2ncc3c(=O)n(N4CCNCC4)ccc3n2)cc2cn(C)nc12 [Compound 1303]
100 to 1000 | < 100 | < 100 | 100 to 1000 | – | Cc1c(O)c(-c2ncc3c(=O)n([C@H]4CCN[C@@H](C)C4)ccc3n2)cc2cn(C)nc12 [Compound 1441, 2-(6-hydroxy-2,7-dimethyl-indazol-5-yl)-6-(2-methyl-4-piperidyl)pyrido[4,3-d]pyrimidin-5-one]
1000 to 10000 | < 100 | 100 to 1000 | 100 to 1000 | – | Cc1c(O)c(-c2ncc3c(=O)n(C4CCNC(C)(C)C4)ccc3n2)cc2cn(C)nc12 (stereo not drawn) [Compound 1442]
100 to 1000 | < 100 | < 100 | < 100 | – | Cn1cc2cc(-c3ccc4c(=O)n(C5CCNC6(CC6)C5)ccc4n3)c(O)cc2n1 (stereo not drawn) [Compound 1242]
